Measurements: paper PMC7385938 (Cell Stress & Chaperones, 2020)

Target: HSPA5-FL (Homo sapiens, UniProt P11021)
Assay: ITC, liposomes titrated into protein
Format: binding

Sequence of HSPA5-FL (P11021 25-654): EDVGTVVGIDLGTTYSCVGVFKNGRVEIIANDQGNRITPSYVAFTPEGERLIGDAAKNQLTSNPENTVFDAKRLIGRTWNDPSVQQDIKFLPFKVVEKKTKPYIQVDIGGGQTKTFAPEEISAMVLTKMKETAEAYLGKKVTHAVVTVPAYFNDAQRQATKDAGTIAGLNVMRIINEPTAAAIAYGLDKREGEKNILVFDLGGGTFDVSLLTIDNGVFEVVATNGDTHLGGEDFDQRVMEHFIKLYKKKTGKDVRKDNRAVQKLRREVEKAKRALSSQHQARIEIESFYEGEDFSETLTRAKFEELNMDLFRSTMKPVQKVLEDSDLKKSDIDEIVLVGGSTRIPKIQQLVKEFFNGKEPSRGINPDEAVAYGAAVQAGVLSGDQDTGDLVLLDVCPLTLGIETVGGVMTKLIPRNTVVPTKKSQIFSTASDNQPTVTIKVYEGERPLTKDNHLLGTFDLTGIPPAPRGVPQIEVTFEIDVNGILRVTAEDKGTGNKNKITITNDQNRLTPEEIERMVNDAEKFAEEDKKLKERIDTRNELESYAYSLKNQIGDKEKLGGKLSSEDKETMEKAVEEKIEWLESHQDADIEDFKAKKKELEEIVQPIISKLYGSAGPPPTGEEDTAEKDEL

Compound | Kd
CCCCCCCCCCCCCC(=O)OC[C@H](COP(=O)(O)OCC(O)COP(=O)(O)OC[C@@H](COC(=O)CCCCCCCCCCCCC)OC(=O)CCCCCCCCCCCCC)OC(=O)CCCCCCCCCCCCC (some centres unmarked) [CL, 1′,3′-bis[1,2-dimyristoyl-sn-glycero-3-phospho]-glycerol] | 1600 ± 500 nM
CCCCCCCC/C=C\CCCCCCCC(=O)O[C@H](COC(=O)CCCCCCCCCCCCCCC)COP(=O)(O)OC[C@H](N)C(=O)O [POPS] | 3500 ± 800 nM
